Several values for one entry are separate records, joined by “and”; a condition that tells them apart may be missing. Identical values can stand only once. Like-named read-outs stand apart in the source and are kept apart here.
Tests used:
HUT-78/HIV-1 NL4.3 = assay: HIV-1-mediated cell-cell fusion, HUT-78/NL4.3 with SupT1 cells
NL4.3 281F12 res. = assay: microbe, parasite or virus in culture; type: cell-based, HIV-1; conditions: Human immunodeficiency virus 1, PBMC, read-out: IC50 PBMC NL4.3 281F12 res. n = 2
AMD3100 resistant virus = assay: microbe, parasite or virus in culture; type: cell-based, HIV-1; conditions: Human immunodeficiency virus 1, MT4, read-out: IC50 MT-4 AMD-3100 res.
NL4.3 3F11 res = assay: microbe, parasite or virus in culture; type: cell-based, HIV-1; conditions: Human immunodeficiency virus 1, TZM-bl, read-out: IC50 TZM-bl X4 NL4.3 3F11 res n = 3
[1] = test system: dual-tropic (R5/X4) HIV-1 strain HE; assay: microbe, parasite or virus in culture; conditions: Human immunodeficiency virus 1, MT4, read-out: IC50 MT-4 HE R5/X4 n = 3
[2] = test system: HIV-1 CI#17 clinical isolate (clade B); assay: HIV-1 CI#17 infection of PBMCs, p24; type: cell-based; conditions: Human immunodeficiency virus 1; PBMC, average 2 donors
HIV-1 NL4.3 (X4) = assay: HIV-1 NL4.3 infection of U87 cells; conditions: Human immunodeficiency virus 1, U-87 MG, read-out: IC50 U87 + NL 4.3 (X4) n = 3
[3] = test system: HIV-1 NL4.3 281F12-resistant virus; assay: microbe, parasite or virus in culture; type: cell-based
[4] = test system: HIV-1 X4 UG270 clinical isolate (clade D); assay: HIV-1 UG270 infection of PBMCs, p24; type: cell-based; conditions: Human immunodeficiency virus 1; PBMC, average 2 donors
[5] = test system: CXCR4-using (X4) HIV-1 clone NL4.3; assay: microbe, parasite or virus in culture; type: cell-based
HUT-78/HIV1 IIIb = assay: HIV-1-mediated cell-cell fusion, HUT-78/IIIb with SupT1 cells; conditions: Human immunodeficiency virus 1, IIIB, read-out: IC50 syncytia formation SupT1 + HUT-78/IIIb n = 3
NL4.3 281F12 res = assay: microbe, parasite or virus in culture; type: cell-based, HIV-1; conditions: Human immunodeficiency virus 1, TZM-bl, read-out: IC50 TZM-bl X4 NL4.3 281F12 res n = 3
[6] = test system: dual-tropic R5/X4 HIV-1 HE; assay: HIV-1 HE infection of PBMCs, p24; type: cell-based; conditions: Human immunodeficiency virus 1, PBMC, read-out: IC50 PBMC HE R5/X4 n = 9
[7] = test system: HIV-1 NL4.3 3F11-resistant virus; assay: microbe, parasite or virus in culture; type: cell-based
HIV-1 X4 NL4.3 strain = assay: HIV-1 NL4.3 infection of PHA-stimulated PBMCs, p24 Ag ELISA; type: cell-based
X4 HIV-1 NL4.3 WT = assay: TZM-bl luciferase assay, NL4.3 WT; type: cell-based; conditions: Human immunodeficiency virus 1, TZM-bl, read-out: IC50 TZM-bl X4 NL4.3 WT n = 4
NL4.3 3F11 res. = assay: microbe, parasite or virus in culture; type: cell-based, HIV-1; conditions: Human immunodeficiency virus 1, PBMC, read-out: IC50 PBMC NL4.3 3F11 res. n = 2
[8] = test system: CXCL-12 res. HIV-1 NL4.3 variant; assay: microbe, parasite or virus in culture; type: cell-based; conditions: Human immunodeficiency virus 1, MT4, read-out: IC50 MT-4 CXCL-12 res.
[9] = test system: dual-tropic (R5/X4) HIV-2 ROD strain; assay: microbe, parasite or virus in culture; conditions: Human immunodeficiency virus 2, MT4, read-out: IC50 MT-4 HIV-2 ROD R5/X4 n = 3
[10] = test system: HIV-1 CM237 clinical isolate (clade B); assay: HIV-1 CM237 infection of PBMCs, p24; type: cell-based; conditions: Human immunodeficiency virus 1; PBMC, average 2 donors

c1cc(CN2CCCNCCNCCCNCC2)ccc1CN1CCCNCCNCCCNCC1 [AMD3100, plerixafor]
IC50 (HUT-78/HIV-1 NL4.3; Human immunodeficiency virus 1, HuT78, read-out: IC50 cell-cell fusion): 1100 nM
IC50 (HUT-78/HIV-1 NL4.3; Human immunodeficiency virus 1, read-out: IC50 syncytia formation SupT1 + HUT-78/NL4.3 n = 4): 1120 nM
IC50 (NL4.3 281F12 res.): 57 nM
IC50 (AMD3100 resistant virus): 404 nM
IC50 (NL4.3 3F11 res): 915 nM
IC50 [1]: 3.9 nM
IC50 [2]: 22 nM
IC90 [2]: 47 nM
IC50 (HIV-1 NL4.3 (X4)): 10 nM
IC50 ([3]; Human immunodeficiency virus 1, MT4, read-out: IC50 MT-4 281F12 res.): 399 nM
IC50 ([3]; Human immunodeficiency virus 1, MT4, read-out: IC50 against HIV-1 NL4.3 281F12res virus): 400 nM and 0.317 µg/mL
IC50 [4]: 16 nM
IC90 [4]: 41 nM
IC50 ([5]; Human immunodeficiency virus 1, MT4, read-out: IC50 MT-4 + NL 4.3 (X4) n = 3): 4.75 nM
IC50 ([5]; Human immunodeficiency virus 1, MT4, read-out: IC50 MT-4 NL4.3 X4 n = 3): 4.28 nM
IC50 ([5]; Human immunodeficiency virus 1, MT4, read-out: IC50 MT-4 NL4.3 wt): 4.28 nM
IC50 ([5]; Human immunodeficiency virus 1, MT4, read-out: IC50 X4 NL4.3 strain in MT-4 cells): 6.26 nM
IC50 (HUT-78/HIV1 IIIb): 22000 nM
IC50 (NL4.3 281F12 res): 4920 nM
IC50 [6]: 26 nM
IC50 ([7]; Human immunodeficiency virus 1, MT4, read-out: IC50 MT-4 3F11 res.): 18.5 nM
IC50 ([7]; Human immunodeficiency virus 1, MT4, read-out: IC50 against HIV-1 NL4.3 3F11res virus): 18 nM and 0.014 µg/mL
IC50 (HIV-1 X4 NL4.3 strain; Human immunodeficiency virus 1, PBMC, read-out: IC50 PBMC + NL 4.3 (X4) n = 3, Table 8.1.1): 4.5 nM
IC50 (HIV-1 X4 NL4.3 strain; Human immunodeficiency virus 1, PBMC, read-out: IC50 PBMC NL4.3 WT n = 10, Table 8.3): 4.5 nM
IC50 (HIV-1 X4 NL4.3 strain; Human immunodeficiency virus 1, PBMC, read-out: IC50 PBMC NL4.3 X4 n = 10, Table 8.1.2): 3.3 nM
IC50 (HIV-1 X4 NL4.3 strain; Human immunodeficiency virus 1, PBMC, read-out: IC50 HIV-1 NL4.3 in PBMC): 3.3 nM
IC90 (HIV-1 X4 NL4.3 strain; Human immunodeficiency virus 1, PBMC, average 2 donors): 42 nM
IC50 (HIV-1 X4 NL4.3 strain; Human immunodeficiency virus 1, PBMC, average 2 donors, read-out: IC50 NL4.3 X4): 13 nM
IC50 (X4 HIV-1 NL4.3 WT): 411 nM
IC50 (NL4.3 3F11 res.): 20 nM
IC50 [8]: 50.3 nM
IC50 [9]: 21.1 nM
IC50 [10]: 10 nM
IC90 [10]: 24 nM

Source: patent US10273305B2, “Bispecific CXCR4-CD4 polypeptides with potent anti-HIV activity” (Ablynx N.V., priority 2015, dated 2019)
